From patent publication US20060141054A1, “Metal coordinated compositions” (priority 2004, published 2006)

Columns and labels:
[1] = Equilibrium/stability constants of magnesium complexes; format: physicochemical; conditions: estimated from literature precedents of similar compounds
[2] = Equilibrium/stability constants of zinc complexes; format: physicochemical; conditions: approximated
[3] = Log D at pH 7.4 (octanol/water); format: physicochemical
Procedure: Log D is the log distribution coefficient at a particular pH (Equation 8). […] Log D=log10(Distribution Coefficient) Equation 8
Determination of pKa and log P was done by potentiometry and spectrophotometry. The potentiometric method includes the use of expert software to calculate pKa and log P from simple acid and base titrations of the analytes. The pKa was first determined by weighing approximately 2 mg of pure substance into an assay vial. […] The solution was then titrated with acid (0.5N HCl) or base (0.5N NaOH) to the final pH.
The log P was determined by a titration in the presence of octanol (water saturated). The pKa in water and the apparent pKa in the presence of octanol (poKa) were compared and the log P determined. Ion-pairing (partitioning of a charged species into octanol, termed log P^+ or log P^−) were determined with an additional titration in the presence of another volume of octanol. Using experimentally determined pKa and log P, a drug lipophilicity profile (log D. vs. pH) was calculated. The log D7.4 was determined from this profile at pH 7.4.

[4] = physchem; conditions: water, 0.15 m kcl
[5] = water, 0.15 m kcl

Bis(acycloguanosinato)magnesium
log Keq (estimated) [1]: 1.6

N[C@@H](Cc1ccccc1)C(=O)O.[Zn] [phenylalanine-zinc]
cumulative binding constant, β2 [2]: 8.5

N[C@@H](Cc1cc(I)c(Oc2ccc(O)c(I)c2)c(I)c1)C(=O)O [Triiodothyronine]
logD ([3]; Method Potentiometric, read-out: Log D7.4): 2.8 | pKa ([4]; pKa (first listed)): 8.41 | pKa ([4]; pKa (second listed)): 8.07

N[C@@H](Cc1cc(I)c(Oc2ccc(O)c(I)c2)c(I)c1)C(=O)[O-].N[C@@H](Cc1cc(I)c(Oc2ccc(O)c(I)c2)c(I)c1)C(=O)[O-].[Zn+2] [Bis(triiodothyroninato)zinc]
Log D7.4 [3]: 3.43 | pKa (first listed) [5]: 6.66 | pKa (second listed) [5]: 6.42
